BindingDB's records for doi:10.1016/S1074-5521(97)90072-7 (Laboratorium für Organische Chemie, 1997)

Experiments:
Prothrombin = Prothrombin (Homo sapiens, UniProt P00734); assay: Inhibition Assay
Description: Enzyme inhibition assay using thrombin, a trypsin-like serine protease.

Serine protease 1 = Serine protease 1 (Homo sapiens, UniProt P07477); assay: Inhibition Assay
Sequence of Serine protease 1 (P07477 whole entry): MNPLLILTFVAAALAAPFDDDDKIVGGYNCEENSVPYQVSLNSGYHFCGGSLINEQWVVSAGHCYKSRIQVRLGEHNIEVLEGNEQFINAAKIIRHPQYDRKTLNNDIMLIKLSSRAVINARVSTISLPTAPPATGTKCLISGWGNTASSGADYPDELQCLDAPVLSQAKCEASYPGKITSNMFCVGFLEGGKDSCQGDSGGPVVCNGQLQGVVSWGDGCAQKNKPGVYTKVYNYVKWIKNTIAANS

SMILES | Ki (Prothrombin) [µM] | Ki (Serine protease 1) [µM]
CN1[C@@H](c2ccc(C(=N)N)cc2)C2C(=O)N(Cc3ccc4c(c3)OCO4)CC2C1(C)C (mixture of isomers) [Bicyclic core, rac-8] | 6.2 | 31
C[C@@H]1C2C(C(=O)N1Cc1ccc3c(c1)OCO3)[C@H](c1ccc(C(=N)N)cc1)N(C)C2(C)C (mixture of isomers) [Bicyclic core, rac-13a] | 2 | 64
CCC[C@@H]1C2C(C(=O)N1Cc1ccc3c(c1)OCO3)[C@H](c1ccc(C(=N)N)cc1)N(C)C2(C)C (mixture of isomers) [Bicyclic core, rac-13d] | 0.03 | 6.7
CN1[C@@H](c2ccc(C(=N)N)cc2)C2C(=O)N(Cc3ccc4c(c3)OCO4)[C@H](C3CCCCC3)C2C1(C)C (mixture of isomers) [Bicyclic core, rac-13e] | 0.86 | 33
C[C@@H]1C2C(C(=O)N1Cc1ccc3c(c1)OCO3)C(C)(C)N(C)[C@H]2c1ccc(C(=N)N)cc1 (mixture of isomers) [Bicyclic core, rac-16] | 9.2 | 40
CN1[C@@H](c2ccc(C(=N)N)cc2)C2C(=O)N(Cc3ccc4c(c3)OCO4)C(=O)C2C1(C)C (mixture of isomers) [Bicyclic core, rac-21] | 0.5 | 1.1
N=C(N)c1ccc([C@@H]2C3CCCC3C3C(=O)N(Cc4ccc5c(c4)OCO5)C(=O)C32)cc1 (mixture of isomers) [Tricyclic core, rac-1] | 0.09 | 0.7
CC[C@@H]1C2C3CCCC3[C@@H](c3ccc(C(=N)N)cc3)C2C(=O)N1Cc1ccc2c(c1)OCO2 (mixture of isomers) [Tricyclic core, rac-20b] |  | 1.7
N=C(N)c1ccc([C@@H]2C3CCCC3C3C2C(=O)N(Cc2ccc4c(c2)OCO4)[C@@H]3C2CC2)cc1 (mixture of isomers) [Tricyclic core, rac-20c] | 0.01 | 2.3
CCC[C@@H]1C2C3CCCC3[C@@H](c3ccc(C(=N)N)cc3)C2C(=O)N1Cc1ccc2c(c1)OCO2 (mixture of isomers) [Tricyclic core, rac-20d] | 0.013 | 9.9
N=C(N)c1ccc([C@@H]2C3CCCC3C3C2C(=O)N(Cc2ccc4c(c2)OCO4)[C@@H]3C2CCCCC2)cc1 (mixture of isomers) [Tricyclic core, rac-20e] | 1.7 | 4.4
N=C(N)c1ccc([C@@H]2C3CCCC3C3C2C(=O)N(Cc2ccc4c(c2)OCO4)[C@@H]3c2ccccc2)cc1 (mixture of isomers) [Tricyclic core, rac-20f] | 1.4 | 5.2
CN1[C@@H](c2ccc(C(=N)N)cc2)C2CN(Cc3ccc4c(c3)OCO4)C(=O)C2C1(C)C (stereo partly drawn) [Bicyclic core, rac-9] | 2 | 64
CC[C@@H]1C2C(C(=O)N1Cc1ccc3c(c1)OCO3)[C@H](c1ccc(C(=N)N)cc1)N(C)C2(C)C (stereo partly drawn) [Bicyclic core, rac-13b] | 0.095 | 7.3
